Experimental data: US20230021562A1, “[…] D[…]-1 INHIBITORS” (priority 2019, published 2023)
“And” between values parts separate entries of the source, which are not always exact repeats. Identical values can stand only once. Like-named read-outs stand apart in the source and are kept apart here.

How the values were obtained:
MOLP8 cell line = test: MOLP8 CellEvent Caspase-3/7 Green live-cell IncuCyte apoptosis assay; assay type: cell-based, human; conditions: MOLP8 cells, averaged values
Description: (§1) MCL-1 is a regulator of apoptosis and is highly over-expressed in tumor cells that escape cell death. The assay evaluates the cellular potency of small-molecule compounds targeting regulators of the apoptosis pathway, primarily MCL-1, Bfl-1, Bcl-2, and other proteins of the Bcl-2 family. Protein-protein inhibitors disrupting the interaction of anti-apoptotic regulators with BH3-domain proteins initiate apoptosis.
Activation of the apoptotic pathway was measured using the CellEvent™ Caspase-3/7 Green ReadyProbes™ Reagent (Thermo Fisher C10423, C10723). This assay produces a green fluorescent stain in cells that enter the apoptosis pathway. CellEvent® Caspase-3/7 Green reagent is a four amino acid peptide (DEVD) conjugated to a nucleic acid-binding dye that is non-fluorescent when not bound to DNA. The CellEvent® Caspase-3/7 Green reagent is intrinsically non-fluorescent, as the DEVD peptide inhibits binding of the dye to DNA. Upon activation of caspase-3/7 in apoptotic cells, the DEVD peptide is cleaved and the free dye can bind DNA, generating a bright green fluorescence. The activation of Caspase-3 and Caspase-7 is downstream of inhibition of MCL-1 or other apoptosis inhibiting proteins in cell lines that are dependent on them.
The live-cell readout on the IncuCyte permits tracking over time of the Caspase activation. […] The IncuCyte readout also allows one to normalize for cell number, as the suspension cells are hard to distribute evenly.
Signals were measured every 2 h for a duration of 22 h. The ratio of the Caspase mask to the Confluence mask, per image, as raw data, was calculated and the kinetic trace for every well was exported to Genedata Screener for analysis.
In Genedata Screener values for 6 h, 12 h, and 22 h from the kinetic traces were extracted. The values were normalized against negative controls (untreated cells). A standard dose-response analysis was performed on the normalized data.
The following data was reported at each of the following three aforementioned time points: (a) The dose-response curve, (b) The qAC50 and qAC50 Mode, and (c) Max Activity.
Cells were maintained in culture medium containing 10% Heat Inactivated (HI) FBS, 2 mM L-Glutamine and 50 μg/mL Gentamycin phenol red free RPMI-1640. Cells were split at 0.4 million/mL twice a week.
On Day 1, plates containing individual wells with test compounds at 10 mM concentration, 150 nL per well. The final concentrations range from […] compound (and no compound control) and compounds were thawed at room temperature for 1 hour. 25 μl of prewarmed medium was added into each well by multidrop (column 1, 3-22, 24), followed by addition of DMSO control (0.6% DMSO) in column 2. The plate was sealed using Breathe-Easy® sealing membrane and shaken for 30 min at room temperature to dissolve the test compound(s) in medium. The plate was then kept in the incubator for 1 hour at 37° C., 5% CO2.
MOLP8 cells in medium at […] (20000/50 μl final in assay) were prepared with CellEvent™ Caspase-3/7 Green Detection Reagent at 4 μM (2 μM final in assay). Once prepared, the cells were added to the test compound plate in an amount of 20000 and the plate was immediately placed in the IncuCyte and imaging started using following settings: 10× objective, 2 s exposure time in green channel, interval of 2 h, acquisition stopped after 22 h.
For analysis in IncuCyte, a Basic Analysis protocol was defined to calculate the “confluence” and “caspase” areas from the “Phase” and “green” images, respectively, as follows: (a) Confluence: Segmentation Adjustment 1, Hole Fill 0, Adjust Size −2, No filters (b) Caspase: Top-Hat segmentation, Radius 10, Threshold 0.3 GCU, Edge Split On with sensitivity 0, Hole Fill 0, Adjust Size 1, and filter on a minimum Area of 20 μm^2. The analyzer is trained on a sufficient number of positive and negative control wells, as well as compound treated wells, verifying that the “confluence” layer detects both live and dead (condensed) cells. […]

[1] = biological target: Myeloid Cell Leukemia 1 (Mcl-1) (Homo sapiens, UniProt Q07820); test: biochemical; assay type: binding; conditions: HTRF Ki (nM)
[2] = tested on: MOLP-8 human multiple myeloma cell line; test: MOLP8 Caspase-Glo 3/7 luminescent assay; assay type: cell-based; conditions: averaged over all runs on all batches
From the text: as §1
The Caspase-Glo® 3/7 Assay is a luminescent assay that measures caspase-3 and -7 activities in purified enzyme preparations or cultures of adherent or suspension cells. The assay provides a proluminescent caspase-3/7 substrate, which contains the tetrapeptide sequence DEVD. This substrate is cleaved to release aminoluciferin, a substrate of luciferase used in the production of light. Addition of the single Caspase-Glo® 3/7 Reagent in an “add-mix-measure” format results in cell lysis, followed by caspase cleavage of the substrate and generation of a “glow-type” luminescent signal.
This assay uses the MOLP-8 human multiple myeloma cell line, which is sensitive to MCL-1 inhibition.
Cell cultures were maintained between 0.2 and 2.0×10^6 cells/mL. The cells were harvested by collection in 50 mL conical tubes. The cells were then pelleted at 500 g for 5 mins before removing supernatant and resuspension in fresh pre-warmed culture medium. The cells were counted and diluted as needed.
The assay reagent was prepared by transferring the buffer solution to the substrate vial and mixing. The solution may be stored for up to 1 week at 4° C. with negligible loss of signal.
Compounds were delivered in assay-ready plates (Proxiplate) and stored at −20° C.
Assays always include 1 reference compound plate containing reference compounds. The plates were spotted with 40 nL of compounds (0.5% DMSO final in cells; serial dilution; 30 μM highest conc. 1/3 dilution, 10 doses, duplicates). The compounds were used at room temperature and 4 μL of pre-warmed media was added to all wells except column 2 and 23. The negative control was prepared by adding 1% DMSO in media. The positive control was prepared by adding the appropriate positive control compound in final concentration of 60 μM in media. The plate was prepared by adding 4 μL negative control to column 23, 4 μL positive control to column 2 and 4 μL cell suspension to all wells in the plate. The plate with cells was then incubated at 37° C. for 2 hours. The assay signal reagent is the Caspase-Glo solution described above, and 8 μL was added to all wells. The plates were then sealed and measured after 30 minutes.
The activity of a test compound was calculated as percent change in apoptosis induction as follows: […]

[3] = read-out: MOLP8 Caspase 3/7 AC50 at 6 h, 6 h
[4] = read-out: MOLP8 Caspase 3/7 AC50 at 12 h, 12 h
[5] = read-out: MOLP8 Caspase 3/7 AC50 at 22 h, 22 h
[6] = MOLP8 cells, 2 hours incubation, read-out: MOLP8 Caspase-Glo AC50
[7] = read-out: MOLP8 Caspase-Glo AC50, MOLP8 cells, 2 hours incubation
[8] = Homo sapiens, MOLP-8, 2 h, read-out: MOLP8 Caspase-Glo AC50 (nM), MOLP8 cells, 2 hours incubation

Sequence of Myeloid Cell Leukemia 1 (Mcl-1) (Q07820 whole entry): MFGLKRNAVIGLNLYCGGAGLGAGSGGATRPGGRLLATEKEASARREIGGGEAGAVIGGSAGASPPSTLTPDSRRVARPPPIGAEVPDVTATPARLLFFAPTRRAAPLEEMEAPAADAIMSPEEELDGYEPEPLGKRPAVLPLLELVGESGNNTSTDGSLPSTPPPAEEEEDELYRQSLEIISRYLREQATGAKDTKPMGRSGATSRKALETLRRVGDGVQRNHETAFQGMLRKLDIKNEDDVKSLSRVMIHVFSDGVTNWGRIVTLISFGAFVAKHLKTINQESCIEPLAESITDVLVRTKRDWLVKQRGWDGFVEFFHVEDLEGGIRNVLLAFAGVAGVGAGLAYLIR

SMILES	AC50 (MOLP8 cell line; [3]) [nM]	AC50 (MOLP8 cell line; [4]) [nM]	AC50 (MOLP8 cell line; [5]) [nM]	Ki [1]	AC50 [2, 6] [nM]	AC50 [2, 7] [nM]	AC50 [2, 8] [nM]	AC50 ([2]; Homo sapiens, MOLP-8, 2 h, MOLP8 cells, 2 hours incubation, read-out: MOLP8 Caspase-Glo AC50) [nM]
Cc1nn(CCN(C)C)c2c1-c1c(Cl)ccc3c(c(C(=O)O)n(C)c13)CCCOc1cc(cc3ccccc13)SCc1cc(nn1C)CN(C)C2 (single isomer, unassigned) [Compound 19]	1090	990	990	0.08 nM and 0.18 nM	233	–	–	–
Cc1c2c(nn1CCN(C)C)CN(C)Cc1cc(n(C)n1)CSc1cc(c3ccccc3c1)OCCCc1c(C(=O)O)n(C)c3c-2c(Cl)ccc13 (single isomer, unassigned) [Compound 20]	290	320	330	0.06 nM and 0.03 nM	83	–	–	–
Cc1c2c(nn1CCN(C)C)CN(C)Cc1cc(n(C)n1)CSc1cc(c3ccccc3c1)OCCCc1c(C(=O)O)n(C)c3c-2c(Cl)ccc13 (single isomer, unassigned) [Compound 21]	3160	2960	3090	0.49 nM and 0.31 nM	1600	–	–	–
Cc1nn(CCN(C)C)c2c1-c1c(Cl)ccc3c(c(C(=O)O)n(C)c13)CCCOc1cc(cc3ccccc13)SCc1cc(nn1C)CN(C)C2 (single isomer, unassigned) [Compound 22]	~17400	~17000	~17000	3.73 nM and 3.07 nM	14500	–	–	–
Cc1[nH]nc2c1-c1c(Cl)ccc3c(c(C(=O)O)n(C)c13)CCCOc1cc(cc3ccccc13)SCc1cc(nn1C)CN(C)C2 (single isomer, unassigned) [Compound 23]	450	450	420	0.07 nM and 0.03 nM	–	215	–	–
Cc1[nH]nc2c1-c1c(Cl)ccc3c(c(C(=O)O)n(C)c13)CCCOc1cc(cc3ccccc13)SCc1cc(nn1C)CN(C)C2 (single isomer, unassigned) [Compound 24]	~10500	12000	11500	1.2 nM and 1.87 nM	–	8160	–	–
COCCn1nc(C)c2c1CN(C)Cc1cc(n(C)n1)CSc1cc(c3ccccc3c1)OCCCc1c(C(=O)O)n(C)c3c-2c(Cl)ccc13 (single isomer, unassigned) [Compound 26]	8290	7960	8610	4.14 nM and 5.54 nM	–	–	4330	–
COCCn1nc2c(c1C)-c1c(Cl)ccc3c(c(C(=O)O)n(C)c13)CCCOc1cc(cc3ccccc13)SCc1cc(nn1C)CN(C)C2 (single isomer, unassigned) [Compound 27]	100	100	90	0.03 nM and 0.06 nM	–	36	–	–
COCCn1nc2c(c1C)-c1c(Cl)ccc3c(c(C(=O)O)n(C)c13)CCCOc1cc(cc3ccccc13)SCc1cc(nn1C)CN(C)C2 (single isomer, unassigned) [Compound 28]	~20700	13400	11400	9.8 nM and 9.39 nM	–	5400	–	–
COCCOCCn1nc(C)c2c1CN(C)Cc1cc(n(C)n1)CSc1cc(c3ccccc3c1)OCCCc1c(C(=O)O)n(C)c3c-2c(Cl)ccc13 (single isomer, unassigned) [Compound 29]	60	62	60	0.06 nM and 0.03 nM	23	–	–	–
COCCOCCn1nc(C)c2c1CN(C)Cc1cc(n(C)n1)CSc1cc(c3ccccc3c1)OCCCc1c(C(=O)O)n(C)c3c-2c(Cl)ccc13 (single isomer, unassigned) [Compound 30]	2010	2140	2230	0.81 nM and 0.75 nM	971	–	–	–
COCCOCCn1nc2c(c1C)-c1c(Cl)ccc3c(c(C(=O)O)n(C)c13)CCCOc1cc(cc3ccccc13)SCc1cc(nn1C)CN(C)C2 (single isomer, unassigned) [Compound 31]	160	160	160	0.04 nM and 0.03 nM	39	–	–	–
COCCOCCn1nc2c(c1C)-c1c(Cl)ccc3c(c(C(=O)O)n(C)c13)CCCOc1cc(cc3ccccc13)SCc1cc(nn1C)CN(C)C2 (single isomer, unassigned) [Compound 32]	~27500	~21500	~20000	7.44 nM and 8.51 nM	12100	–	–	–
Cc1nn(CCCN2CCOCC2)c2c1-c1c(Cl)ccc3c(c(C(=O)O)n(C)c13)CCCOc1cc(cc3ccccc13)SCc1cc(nn1C)CN(C)C2 (single isomer, unassigned) [Compound 33]	300	240	340	0.03 nM	94	–	–	–
Cc1nn(CCCN2CCOCC2)c2c1-c1c(Cl)ccc3c(c(C(=O)O)n(C)c13)CCCOc1cc(cc3ccccc13)SCc1cc(nn1C)CN(C)C2 (single isomer, unassigned) [Compound 34]	2250	2540	2320	0.47 nM and 0.68 nM	1000	–	–	–
Cc1c2c(nn1CCCN1CCOCC1)CN(C)Cc1cc(n(C)n1)CSc1cc(c3ccccc3c1)OCCCc1c(C(=O)O)n(C)c3c-2c(Cl)ccc13 (single isomer, unassigned) [Compound 36]	6140	5770	4290	1.34 nM and 2.06 nM	–	–	–	2820
Cc1c2c(nn1CCO)CN(C)Cc1cc(n(C)n1)CSc1cc(c3ccccc3c1)OCCCc1c(C(=O)O)n(C)c3c-2c(Cl)ccc13 (single isomer, unassigned) [Compound 38]	5490	5390	5160	0.7 nM and 0.48 nM	–	–	3050	–
